One data set relates to HCT-116. The experiment in a line: cells. To be noted: Homo sapiens, HCT-116, 72 h.
A further data set relates to HeLa. Kind of data set: Antiproliferative activity against human HeLa cells after 72 hrs by MTT assay. In kind it is functional, cell-based. (Formazan colour is commonly taken as a measure of viable cells.)
The next data set has as its target T1, Dihydrofolate reductase (Homo sapiens, UniProt P00374).
T1 sequence (P00374 whole entry): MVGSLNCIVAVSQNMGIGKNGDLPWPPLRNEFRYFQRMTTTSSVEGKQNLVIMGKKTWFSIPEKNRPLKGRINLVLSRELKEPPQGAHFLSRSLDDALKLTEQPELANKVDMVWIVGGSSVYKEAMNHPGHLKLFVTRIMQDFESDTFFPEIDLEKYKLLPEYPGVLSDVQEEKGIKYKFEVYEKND
Kind of data set: Inhibition of recombinant human DHFR expressed in Escherichia coli incubated for 15 mins and measured by ELISA.

A further data set concerns HepG2. Kind of data set: cells. As to conditions: Homo sapiens, HepG2, 72 h.
Data set [1] deals with Receptor tyrosine-protein kinase erbB-2 (Homo sapiens, UniProt P04626). Kind of data set: Inhibition of recombinant human HER2 incubated for 40 to 45 mins and measured after 15 mins by Kinase-Glo Max assay. On the technique in general: In Kinase-Glo more light means more ATP remaining.
For data set [2], the system named is MCF7. Kind of data set: cells. As to conditions: Homo sapiens, MCF7, 72 h.
The target of data set [3] is Epidermal growth factor receptor (Homo sapiens, UniProt P00533).
Description: Inhibition of recombinant human EGFR incubated for 40 to 45 mins and measured after 15 mins by Kinase-Glo Max assay
The test system of another data set is WI-38. The experiment in a line: Antiproliferative activity against human WI-38 cells after 72 hrs by MTT assay. The class given is functional, cell-based. To be noted: WI-38, 72 h.
A further data set concerns PC-3. Kind of data set: Antiproliferative activity against human PC-3 cells after 72 hrs by MTT assay. To be noted: PC-3, 72 h. In kind it is functional, cell-based.
Data set [4] has as its system MCF7. Kind of data set: Induction of necrosis in human MCF7 cells assessed as necrotic cells level measured by propidium iodide/RNAse staining based flow cytometry analysis (reference value: 0.9%). The class given is functional. A general note: In flow cytometry, cells or beads pass a laser one at a time.
In data set [5] the test system is MCF7. Kind of data set: Induction of cell cycle arrest in human MCF7 cells assessed as increase in DNA content at S phase measured by propidium iodide/RNAse staining based flow cytometry analysis (reference value: […]%). In kind it is functional.
A short description of data set [6]: Toxicity in 7,12-dimethylbenz [a]anthracene-induced non-lactating mammary glands solid tumor model of female Swiss albino mouse assessed as mean body weight at 10 mg/kg, ip. In kind it is organism-based. To be noted: in vivo.
In the next data set the test system is Breast carcinoma cell. Kind of data set: Induction of apoptosis in human breast cancer cells assessed as normalization of caspase-3 expression measured as caspase-3 score. The class given is functional, Breast cancer cell line.
Data set [7] deals with MCF7. The experiment in a line: Induction of cell cycle arrest in human MCF7 cells assessed as decrease in DNA content at G2/M phase measured by propidium iodide/RNAse staining based flow cytometry analysis (reference value: 13.4%). The class given is functional. More on the design: scale not given: the % may be the effect or the level left.
For data set [8], the system named is MCF7. Kind of data set: Induction of apoptosis in human MCF7 cells assessed as early apoptotic cells level measured by propidium iodide/RNAse staining based flow cytometry analysis (reference value: […]). The class given is functional.
Data set [9] concerns MCF7. The experiment in a line: Induction of apoptosis in human MCF7 cells assessed as late apoptotic cells level measured by propidium iodide/RNAse staining based flow cytometry analysis (reference value: 0.22%). The class given is functional.
The test system of data set [10] is MCF7. Kind of data set: Induction of cell cycle arrest in human MCF7 cells assessed as increase in DNA content at G0/G1 phase measured by propidium iodide/RNAse staining based flow cytometry analysis (reference value: 57.82%). In kind it is functional.
The test system of data set [11] is MCF7. The experiment in a line: Induction of apoptosis in human MCF7 cells assessed as total apoptotic cells level measured by propidium iodide/RNAse staining based flow cytometry analysis (reference value: 0.73%). In kind it is functional.
Data set [12] is described as follows: Antitumor activity in 7,12-dimethylbenz [a]anthracene-induced non-lactating mammary glands solid tumor model of female Swiss albino mouse assessed as mean tumor volume at 10 mg/kg, ip. The class given is functional.
The nature of data set [13]: Antitumor activity in 7,12-dimethylbenz [a]anthracene-induced non-lactating mammary glands solid tumor model of female Swiss albino mouse assessed as reduction in tumor volume at 10 mg/kg, ip. In kind it is functional. More on the design: scale not given: the % may be the effect or the level left.
In the next data set the test system is Breast cancer cell line. The experiment in a line: Antitumor activity in 7,12-dimethylbenz [a]anthracene-induced non-lactating mammary glands solid tumor model of female Swiss albino mouse assessed as absence of ductal carcinoma in mammary gland at 10 mg/kg, ip measured by H and E staining method. The class given is functional, organism-based.
Data set [14] in a line: Toxicity in 7,12-dimethylbenz [a]anthracene-induced non-lactating mammary glands solid tumor model of female Swiss albino mouse assessed as reduction in body weight at 10 mg/kg, ip. More on the design: scale not given: the % may be the effect or the level left. The class given is organism-based. As to conditions: in vivo.
Data set [15] is described as follows: Antitumor activity in 7,12-dimethylbenz [a]anthracene-induced non-lactating mammary glands solid tumor model of female Swiss albino mouse assessed as mean tumor volume at 2 mg/kg, ip. The class given is functional.
Data set [16] in a line: Antitumor activity in 7,12-dimethylbenz [a]anthracene-induced non-lactating mammary glands solid tumor model of female Swiss albino mouse assessed as reduction in tumor volume at 2 mg/kg, ip. The class given is functional. Also on record: scale not given: the % may be the effect or the level left.
Data set [17] can be described thus: Toxicity in 7,12-dimethylbenz [a]anthracene-induced non-lactating mammary glands solid tumor model of female Swiss albino mouse assessed as reduction in body weight at 2 mg/kg, ip. The class given is organism-based. More on the design: scale not given: the % may be the effect or the level left. As to conditions: in vivo.
A short description of data set [18]: Toxicity in 7,12-dimethylbenz [a]anthracene-induced non-lactating mammary glands solid tumor model of female Swiss albino mouse assessed as mean body weight at 2 mg/kg, ip. In kind it is organism-based. As to conditions: in vivo.

The source made the active and inactive calls. The rule behind the calls is not given here.

Chain of Receptor tyrosine-protein kinase erbB-2 (P04626 whole entry): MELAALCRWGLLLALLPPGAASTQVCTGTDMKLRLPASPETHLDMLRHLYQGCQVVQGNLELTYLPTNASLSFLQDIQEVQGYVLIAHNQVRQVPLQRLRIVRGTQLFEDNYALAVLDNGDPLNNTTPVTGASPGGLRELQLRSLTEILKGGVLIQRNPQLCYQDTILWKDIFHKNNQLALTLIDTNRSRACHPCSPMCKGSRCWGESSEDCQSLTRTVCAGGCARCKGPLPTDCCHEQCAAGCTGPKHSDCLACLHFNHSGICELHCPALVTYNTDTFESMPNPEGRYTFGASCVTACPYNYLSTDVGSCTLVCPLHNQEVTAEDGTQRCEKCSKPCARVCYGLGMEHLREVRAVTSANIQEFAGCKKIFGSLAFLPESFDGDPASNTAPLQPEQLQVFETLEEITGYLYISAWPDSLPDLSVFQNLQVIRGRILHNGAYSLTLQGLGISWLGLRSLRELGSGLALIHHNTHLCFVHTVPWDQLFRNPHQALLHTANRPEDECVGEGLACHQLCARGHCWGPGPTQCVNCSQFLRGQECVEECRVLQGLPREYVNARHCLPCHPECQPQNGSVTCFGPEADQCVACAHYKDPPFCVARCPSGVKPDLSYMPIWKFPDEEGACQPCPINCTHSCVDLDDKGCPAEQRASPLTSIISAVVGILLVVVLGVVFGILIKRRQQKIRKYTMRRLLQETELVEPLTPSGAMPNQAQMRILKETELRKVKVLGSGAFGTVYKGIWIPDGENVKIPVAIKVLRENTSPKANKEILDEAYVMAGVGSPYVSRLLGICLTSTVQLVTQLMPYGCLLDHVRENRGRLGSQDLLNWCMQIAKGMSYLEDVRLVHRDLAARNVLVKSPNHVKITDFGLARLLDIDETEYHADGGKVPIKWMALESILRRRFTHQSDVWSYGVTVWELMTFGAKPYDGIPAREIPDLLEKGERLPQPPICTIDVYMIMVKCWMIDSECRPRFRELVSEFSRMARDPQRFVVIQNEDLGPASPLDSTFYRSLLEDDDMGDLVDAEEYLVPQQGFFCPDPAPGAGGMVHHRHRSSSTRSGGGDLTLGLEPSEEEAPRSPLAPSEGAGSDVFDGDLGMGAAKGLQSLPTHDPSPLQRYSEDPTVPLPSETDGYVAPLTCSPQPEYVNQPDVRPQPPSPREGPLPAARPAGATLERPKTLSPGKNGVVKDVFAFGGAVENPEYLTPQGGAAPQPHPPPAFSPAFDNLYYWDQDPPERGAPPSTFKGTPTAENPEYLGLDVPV
Chain of Epidermal growth factor receptor (P00533 whole entry): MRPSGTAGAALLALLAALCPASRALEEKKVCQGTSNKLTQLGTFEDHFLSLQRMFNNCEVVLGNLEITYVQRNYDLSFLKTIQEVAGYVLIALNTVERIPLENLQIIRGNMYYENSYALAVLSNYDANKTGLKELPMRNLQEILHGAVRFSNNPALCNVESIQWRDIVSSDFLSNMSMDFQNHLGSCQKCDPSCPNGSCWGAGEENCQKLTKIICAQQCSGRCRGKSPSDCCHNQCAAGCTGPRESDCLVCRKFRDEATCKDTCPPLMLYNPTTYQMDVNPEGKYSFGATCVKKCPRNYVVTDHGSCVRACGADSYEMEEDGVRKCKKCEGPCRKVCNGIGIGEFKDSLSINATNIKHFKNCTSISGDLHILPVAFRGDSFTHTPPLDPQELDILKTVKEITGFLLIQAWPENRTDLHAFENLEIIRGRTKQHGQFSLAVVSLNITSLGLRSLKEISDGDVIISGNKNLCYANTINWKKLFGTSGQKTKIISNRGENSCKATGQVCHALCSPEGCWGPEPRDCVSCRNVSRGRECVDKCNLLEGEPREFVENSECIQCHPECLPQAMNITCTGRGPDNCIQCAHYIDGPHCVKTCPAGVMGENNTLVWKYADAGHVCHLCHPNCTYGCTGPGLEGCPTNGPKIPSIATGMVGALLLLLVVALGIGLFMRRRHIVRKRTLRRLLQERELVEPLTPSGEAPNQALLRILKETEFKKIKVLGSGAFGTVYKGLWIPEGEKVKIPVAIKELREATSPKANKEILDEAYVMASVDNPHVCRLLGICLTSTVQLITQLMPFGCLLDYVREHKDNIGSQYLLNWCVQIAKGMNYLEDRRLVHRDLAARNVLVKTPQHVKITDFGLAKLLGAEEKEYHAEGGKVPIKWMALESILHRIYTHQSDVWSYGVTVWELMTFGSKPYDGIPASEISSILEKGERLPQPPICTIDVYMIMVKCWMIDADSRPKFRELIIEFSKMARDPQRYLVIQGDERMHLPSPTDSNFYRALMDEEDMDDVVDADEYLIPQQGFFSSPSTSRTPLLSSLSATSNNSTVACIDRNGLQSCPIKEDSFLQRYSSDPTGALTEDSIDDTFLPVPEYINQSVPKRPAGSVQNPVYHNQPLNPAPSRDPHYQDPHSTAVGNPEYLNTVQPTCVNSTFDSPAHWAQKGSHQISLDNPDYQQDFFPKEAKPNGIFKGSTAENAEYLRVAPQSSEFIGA
Description for HCT-116: Antiproliferative activity against human HCT-116 cells after 72 hrs by MTT assay

Turning to `CCC(=O)NNC(=O)c1csc2ncc(-c3ccc(C)cc3)n12`, the IC50 in the data set with HCT-116 came out at 9.23 µM; with HeLa it was 13 µM; on Dihydrofolate reductase, 5.67 µM; with HepG2 it was 7.34 µM; in [1], 0.244 µM; with MCF7 [2], 5.19 µM. In addition, the IC50 in data set [3] is 0.45 µM; in the data set on WI-38, 67.2 µM; in the data set on PC-3, 18.5 µM.
For the compound `Cc1ccc(-c2c(CN3CCOCC3)nc3scc(C(=O)NN)n23)cc1`, the IC50 in the data set on HCT-116 was found to be 13.2 µM; with HeLa, 6.9 µM; at Dihydrofolate reductase, 0.123 µM; in the data set with HepG2, 9.67 µM; in data set [1], 0.357 µM; in the data set with MCF7 [2] it was 8.46 µM. Also, the IC50 was found to be 0.246 µM in data set [3], 89.6 µM in the data set with WI-38 and 11.2 µM in the data set on PC-3.
Take `COc1ccc(-c2c(CN3CCOCC3)nc3scc(C(=O)NN)n23)cc1`: the Activity is given as 3.25% in the data set on MCF7 [4]; 25.49% in the data set with MCF7 [5]; 35.2 g in data set [6]; 1.17 with Breast carcinoma cell; 10.26% with MCF7 [7]; 13.27% with MCF7 [8]. The Activity with MCF7 [9] amounted to 22.19%; in the data set with MCF7 [10], 64.25%; in the data set with MCF7 [11], 35.46%; in [12] it was 1.098 mm3; in data set [13], 65.3%; in [14], 7.4%. The IC50 with HCT-116 worked out at 16.2 µM; in the data set with HeLa it was 9.43 µM; on Dihydrofolate reductase it was 0.585 µM; in the data set on HepG2, 12.2 µM; in data set [1] it was 0.078 µM; in the data set with MCF7 [2], 2.37 µM. The IC50 came to 0.122 µM in data set [3], 36.8 µM with WI-38 and 18.4 µM with PC-3. Moreover, in the data set with Breast cancer cell line, the result was Active.
Regarding `COc1cccc2c1C(=O)c1c(O)c3c(c(O)c1C2=O)C[C@@](O)(C(=O)CO)C[C@@H]3O[C@H]1C[C@H](N)[C@H](O)[C@H](C)O1` [DOXORUBICIN], the Activity in the data set on Breast carcinoma cell turned out to be 1.5; in [15], 0.62 mm3; in [16] it was 80.4%; in data set [17], 23.7%; in [18], 29 g. Further, the IC50 stood at 8.87 µM with HeLa and 8.54 µM with PC-3.
With `Cc1ccc(-c2c(CN3CCCCC3)nc3scc(C(=O)O)n23)cc1`, the IC50 in the data set with HCT-116 came to 13.8 µM; with HeLa, 7.63 µM; on Dihydrofolate reductase it was 0.907 µM; in the data set on HepG2, 10.8 µM; in data set [1] it was 0.146 µM; in the data set on MCF7 [2] it was 8.29 µM. Further, the IC50 is 0.18 µM in data set [3], more than 100 µM with WI-38 and 16.6 µM with PC-3.
As for `NNC(=O)c1csc2nc(CN3CCOCC3)c(-c3ccc(Br)cc3)n12`, the IC50 in the data set on HCT-116 came to 17.9 µM; with HeLa, 3.65 µM; on Dihydrofolate reductase, 3.28 µM; with HepG2 it was 5.81 µM; in data set [1], 0.121 µM; in the data set with MCF7 [2], 6.18 µM. Besides, the results for the IC50 (in [3]; in the data set with WI-38; with PC-3) were 0.419 µM, 49.8 µM and 21.9 µM, respectively.
In the case of `CC(=O)NNC(=O)c1csc2ncc(-c3ccc(Br)cc3)n12`, the Activity was 6.72% with MCF7 [4]; 32.15% in the data set on MCF7 [5]; 31.4 g in [6]; 1.33 in the data set on Breast carcinoma cell; 5.24% in the data set on MCF7 [7]; 9.63% with MCF7 [8]. The Activity in the data set with MCF7 [9] is 28.04%; in the data set on MCF7 [10] it was 62.61%; with MCF7 [11], 37.67%; in data set [12], 0.742 mm3; in data set [13] it was 76.5%; in [14], 17.4%. For the same compound, the IC50 is 6.08 µM in the data set with HCT-116; 4.78 µM with HeLa; 0.291 µM on Dihydrofolate reductase; 3.48 µM with HepG2; 0.108 µM in data set [1]; 1.83 µM in the data set with MCF7 [2]. Further, the IC50 is 0.153 µM in data set [3], 54.2 µM with WI-38 and 12.7 µM in the data set with PC-3. Moreover, the result with Breast cancer cell line was Active.

The IC50 is the point on the concentration scale where inhibition reaches its midpoint.

For the origin of these results see ChEMBL document CHEMBL5108025, “New thiazole-based derivatives as EGFR/HER2 and DHFR inhibitors: Synthesis, molecular modeling simulations and anticancer activity” (Eur J Med Chem, 2022).
